Results published in patent US9085517B2, “Sulfonamide derivatives” (Pfizer Limited, priority 2011, dated 2015).
Where a name gives a salt, the structure may show the parent alone.

What follows are molecules tested against T1, Nav1.7 (or SCN9A) channel (Homo sapiens, UniProt Q15858) (assay: Nav1.7 (hSCN9A) block, whole-cell electrophysiology on the PatchXpress platform). Conditions: estimated IC50 from single point electrophysiology data, HEK cells stably expressing hSCN9A, prepulse to V1/2, read-out: Nav1.7 EIC50.
T1 construct: expressed in transfected cells
T1 sequence (Q15858 whole entry): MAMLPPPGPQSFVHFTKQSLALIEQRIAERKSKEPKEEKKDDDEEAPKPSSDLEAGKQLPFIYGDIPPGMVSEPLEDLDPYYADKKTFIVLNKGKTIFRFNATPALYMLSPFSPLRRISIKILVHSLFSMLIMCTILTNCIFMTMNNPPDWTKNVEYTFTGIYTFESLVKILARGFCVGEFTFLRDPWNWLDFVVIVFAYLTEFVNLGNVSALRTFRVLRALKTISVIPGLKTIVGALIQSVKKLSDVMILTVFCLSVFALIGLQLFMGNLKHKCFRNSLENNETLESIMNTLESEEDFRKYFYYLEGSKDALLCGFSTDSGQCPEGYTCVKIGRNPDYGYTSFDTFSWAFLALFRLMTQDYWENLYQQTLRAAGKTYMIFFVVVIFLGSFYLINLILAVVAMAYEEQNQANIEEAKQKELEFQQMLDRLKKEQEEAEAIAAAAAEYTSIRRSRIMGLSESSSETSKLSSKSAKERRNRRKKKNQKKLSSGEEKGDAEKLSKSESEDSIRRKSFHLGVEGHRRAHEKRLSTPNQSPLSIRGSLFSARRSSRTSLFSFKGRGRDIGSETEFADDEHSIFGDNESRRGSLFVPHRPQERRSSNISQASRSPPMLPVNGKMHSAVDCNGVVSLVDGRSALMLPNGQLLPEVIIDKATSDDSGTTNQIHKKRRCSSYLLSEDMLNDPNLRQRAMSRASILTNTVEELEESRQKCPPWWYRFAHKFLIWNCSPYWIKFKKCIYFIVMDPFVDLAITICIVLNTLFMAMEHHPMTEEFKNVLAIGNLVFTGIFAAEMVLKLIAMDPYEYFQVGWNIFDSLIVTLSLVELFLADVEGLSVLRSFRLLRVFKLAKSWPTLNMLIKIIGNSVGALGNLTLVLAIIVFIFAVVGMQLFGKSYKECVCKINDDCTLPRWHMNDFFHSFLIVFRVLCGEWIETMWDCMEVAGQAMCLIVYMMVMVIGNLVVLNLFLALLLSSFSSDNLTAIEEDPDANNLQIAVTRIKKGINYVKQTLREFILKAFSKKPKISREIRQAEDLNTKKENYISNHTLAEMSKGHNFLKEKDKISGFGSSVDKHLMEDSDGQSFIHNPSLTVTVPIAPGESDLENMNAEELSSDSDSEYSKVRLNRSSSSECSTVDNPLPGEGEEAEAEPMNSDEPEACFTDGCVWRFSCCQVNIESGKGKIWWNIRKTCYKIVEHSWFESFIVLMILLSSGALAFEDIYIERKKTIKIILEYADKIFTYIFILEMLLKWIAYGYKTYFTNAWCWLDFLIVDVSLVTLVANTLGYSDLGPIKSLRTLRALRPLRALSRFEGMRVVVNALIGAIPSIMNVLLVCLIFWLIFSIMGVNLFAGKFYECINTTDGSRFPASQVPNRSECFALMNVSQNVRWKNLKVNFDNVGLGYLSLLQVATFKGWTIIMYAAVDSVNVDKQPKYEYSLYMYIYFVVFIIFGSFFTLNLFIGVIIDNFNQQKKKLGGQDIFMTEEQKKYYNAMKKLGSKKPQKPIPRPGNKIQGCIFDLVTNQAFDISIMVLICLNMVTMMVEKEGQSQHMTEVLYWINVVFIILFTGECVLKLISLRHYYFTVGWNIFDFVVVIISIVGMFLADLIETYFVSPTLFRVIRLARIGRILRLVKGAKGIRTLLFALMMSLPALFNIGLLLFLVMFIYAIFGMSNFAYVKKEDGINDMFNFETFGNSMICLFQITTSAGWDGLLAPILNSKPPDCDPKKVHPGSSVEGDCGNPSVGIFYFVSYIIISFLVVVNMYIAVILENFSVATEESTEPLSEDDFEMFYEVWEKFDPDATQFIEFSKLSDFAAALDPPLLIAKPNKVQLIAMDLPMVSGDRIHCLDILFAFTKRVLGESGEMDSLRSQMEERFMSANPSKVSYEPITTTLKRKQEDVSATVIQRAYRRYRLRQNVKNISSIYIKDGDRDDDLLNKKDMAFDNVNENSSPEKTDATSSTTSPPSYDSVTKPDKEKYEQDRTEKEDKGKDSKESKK
Assay type: cell-based
Method: The ability of the compounds of formula (I) to block the Nav1.7 (or SCN9A) channel were measured using the assay described below.
Human Embryonic Kidney (HEK) cells were transfected with an hSCN9A construct using lipofectamine reagent (Invitrogen), using standard techniques. Cells stably expressing the hSCN9A constructs were identified by their resistance to G-418 (400 μg/ml). Clones were screened for expression using the whole-cell voltage-clamp technique.
HEK cells stably transfected with hSCN9A were maintained in DMEM medium supplemented with 10% heat-inactivated fetal bovine serum and 400 μg/ml G-418 in an incubator at 37° C. with a humidified atmosphere of 10% CO2. For HTS, cells were harvested from flasks by trypsinization and replated in an appropriate multi-well plate (typically 96 or 384 wells/plate) such that confluence would be achieved within 24 hours of plating. For electrophysiological studies, cells were removed from the culture flask by brief trypsinization and re-plated at low density onto glass cover slips. Cells were typically used for electrophysiological experiments within 24 to 72 hours after plating.
Cover slips containing HEK cells expressing hSCN9A were placed in a bath on the stage of an inverted microscope and perfused (approximately 1 ml/minutes) with extracellular solution of the following composition: 138 mM NaCl, 2 mM CaCl2, 5.4 mM KCl, 1 mM MgCl2, 10 mM glucose, and 10 mM HEPES, pH 7.4, with NaOH. […] The osmolarity of the extracellular and intracellular solutions was 300 mOsm/kg and 295 mOsm/kg, respectively. All recordings were made at room temperature (22-24° C.) using AXOPATCH 200B amplifiers and PCLAMP software (Axon Instruments, Burlingame, Calif.).
hSCN9A currents in HEK cells were measured using the whole-cell configuration of the patch-clamp technique (Hamill et al., 1981). Uncompensated series resistance was typically 2 to 5 mega ohms and >85% series resistance compensation was routinely achieved. As a result, voltage errors were negligible and no correction was applied. Current records were acquired at 20 to 50 KHz and filtered at 5 to 10 KHz.
HEK cells stably transfected with hSCN9A were viewed under Hoffman contrast optics and placed in front of an array of flow pipes emitting either control or compound-containing extracellular solutions. All compounds were dissolved in dimethyl sulfoxide to make 10 mM stock solutions, which were then diluted into extracellular solution to attain the final concentrations desired. […] The voltage-dependence of inactivation was determined by applying a series of depolarizing prepulses (8 sec long in 10 mV increments) from a negative holding potential. The voltage was then immediately stepped to 0 mV to assess the magnitude of the sodium current. Currents elicited at 0 mV were plotted as a function of prepulse potential to allow estimation of the voltage at which 50% of the channels were inactivated (midpoint of inactivation or V1/2). Compounds were tested for their ability to inhibit hSCN9A sodium channels by activating the channel with a 20 msec voltage step to 0 mV following an 8 second conditioning prepulse to the empirically determined V1/2. Compound effect (% inhibition) was determined by difference in current amplitude before and after application of test compounds. For ease of comparison, “estimated IC-50” (EIC50) values were calculated from single point electrophysiology data by the following equation, (tested concentration, uM)×(100−% inhibition/% inhibition). Inhibition values <20% and >80% were excluded from the calculation.
Electrophysiological assays were conducted with PatchXpress 7000 hardware and associated software (Molecular Devices Corp). All assay buffers and solutions were identical to those used in conventional whole-cell voltage clamp experiments described above. hSCN9A cells were grown as above to 50%-80% confluency and harvested by trypsinization. […]

SMILES | IC50
CN(C)S(=O)(=O)NC(=O)c1ccc(COc2ccc(Cl)c(C(F)(F)F)c2)cc1 [Example 4, 4-{[4-chloro-3-(trifluoromethyl)phenoxy]methyl}-N-[(dimethylamino)sulfonyl]benzamide] | 1500 nM
O=C(NS(=O)(=O)N1CCC1)c1cc(Cl)c(COc2cnc(C3CC3)c(Cl)c2)cc1F [Example 15, N-(azetidin-1-ylsulfonyl)-5-chloro-4-{[(5-chloro-6-cyclopropylpyridin-3-yl)oxy]methyl}-2-fluorobenzamide] | 90 nM
CC(C)Oc1ncc(COc2cc(F)c(C(=O)NS(=O)(=O)N(C)C)cc2F)cc1Cl [Example 7, 4-[(5-chloro-6-isopropoxypyridin-3-yl)methoxy]-N-[(dimethylamino)sulfonyl]-2,5-difluorobenzamide] | 8300 nM
CN(C)S(=O)(=O)NC(=O)c1ccc(OCc2ccc(Cl)c(Cl)c2)cc1 [Example 12, 4-[(3,4-dichlorobenzyl)oxy]-N-[(dimethylamino)sulfonyl]benzamide] | 2300 nM
CN(C)S(=O)(=O)NC(=O)c1ccc(COc2ccc(C(F)(F)F)c(Cl)c2)cc1 [Example 5, 4-{[3-chloro-4-(trifluoromethyl)phenoxy]methyl}-N-[(dimethylamino)sulfonyl]benzamide] | 920 nM
CC(C)Oc1ncc(OCc2cc(F)c(C(=O)NS(=O)(=O)N3CCC3)cc2F)cc1Cl [Example 13, N-(azetidin-1-ylsulfonyl)-4-{[(5-chloro-6-isopropoxypyridin-3-yl)oxy]methyl}-2,5-difluorobenzamide] | 150 nM
O=C(NS(=O)(=O)N1CC(F)(F)C1)c1cc(Cl)c(COc2cnc(C3CC3)c(Cl)c2)cc1F [Example 16, 5-chloro-4-{[(5-chloro-6-cyclopropylpyridin-3-yl)oxy]methyl}-N-[(3,3-difluoroazetidin-1-yl)sulfonyl]-2-fluorobenzamide] | 270 nM

Further lines, results first:

IC50 | SMILES
110 nM | CN(C)S(=O)(=O)NC(=O)c1cc(F)c(COc2ccc(C(F)(F)F)c(Cl)c2)cc1F [Example 2, 4-{[3-Chloro-4-(trifluoromethyl)phenoxy]methyl}-N-[(dimethylamino)sulfonyl]-2,5-difluorobenzamide]
> 3000 nM | CN(C)S(=O)(=O)NC(=O)c1cc(F)c(COc2ccc(C#N)c(Cl)c2)cc1F [Example 9, 4-[(3-chloro-4-cyanophenoxy)methyl]-N-[(dimethylamino)sulfonyl]-2,5-difluorobenzamide]
1300 nM | CN(C)S(=O)(=O)NC(=O)c1cc(F)c(OCc2ccc(Cl)c(Cl)c2)cc1F [Example 3, 4-[(3,4-Dichlorobenzyl)oxy]-N-[(dimethylamino)sulfonyl]-2,5-difluorobenzamide]
240 nM | CC(C)Oc1ncc(OCc2cc(F)c(C(=O)NS(=O)(=O)N(C)C)cc2F)cc1Cl [Example 1, 4-{[(5-Chloro-6-isopropoxypyridin-3-yl)oxy]methyl}-N-[(dimethylamino)sulfonyl]-2,5-difluorobenzamide]
420 nM | CN(C)S(=O)(=O)NC(=O)c1cc(Cl)c(COc2cnc(C3CC3)c(Cl)c2)cc1F [Example 14, 5-chloro-4-{[(5-chloro-6-cyclopropylpyridin-3-yl)oxyl]methyl}-N-[(dimethylamino)sulfonyl]-2-fluorobenzamide diethylamine salt]
200 nM | CN(C)S(=O)(=O)NC(=O)c1cc(F)c(COc2ccc(Cl)c(C(F)(F)F)c2)cc1F [Example 6, 4-{[4-chloro-3-(trifluoromethyl)phenoxy]methyl}-N-[(dimethylamino)sulfonyl]-2,5-difluorobenzamide]
350 nM | CN(C)S(=O)(=O)NC(=O)c1cc(F)c(COc2ccc(Cl)c(Cl)c2)cc1F [Example 10, 4-[(3,4-dichlorophenoxy)methyl]-N-[(dimethylamino)sulfonyl]-2,5-difluorobenzamide]
850 nM | CN(C)S(=O)(=O)NC(=O)c1cc(F)c(COc2ccc(Cl)c(F)c2)cc1F [Example 8, 4-[(4-chloro-3-fluorophenoxy)methyl]-N-[(dimethylamino)sulfonyl]-2,5-difluorobenzamide]
580 nM | CN(C)S(=O)(=O)NC(=O)c1cc(F)c(COc2ccc(F)c(Cl)c2)cc1F [Example 11, 4-[(3-chloro-4-fluorophenoxy)methyl]-N-[(dimethylamino)sulfonyl]-2,5-difluorobenzamide]
